In patent EP0838225A2, “Aqueous local anesthetic solution” (Hiji, Yasutake, priority 1996, dated 1998):

Assays:
[1] = Turbidity and clearness of local anesthetic solutions from absorbance at 620 nm (Experimental Example 1); format: physicochemical; settings: for OD (620 nm): absorbance at wavelength of 620 nm, CD added at equimolar concentration, pH as in label; for clearness (%) / turbidity (%): calculated from absorbance at 620 nm
Procedure: The turbidity and clearness of each inclusion compound solution were calculated from the absorbances thus obtained. […] In the same manner as above, OD (620 nm) was determined with respect to the obtained inclusion compound solution of each local anesthetic in cyclodextrin or a derivative thereof, and solutions of each local anesthetic. The turbidity and clearness of each inclusion compound solution were calculated from the absorbances thus obtained.

[2] = Absorbance at 620 nm and pH of solutions over time after stirring (Experimental Example 2); format: physicochemical; settings: N=4; for pH: average; for absorbance at 620 nm: mean±S.E.
Procedure: The absorbance at wavelength 620 nm [OD(620 nm)] and pH of 0.4% dibucaine solution were determined using UV-visible recording spectrophotometer (UV-2100, Shimadzu Corporation). The solution was stirred, and OD (620 nm) and pH were determined at 5 min, 24 hr, 48 hr and 72 hr later.
OD (620 nm) and pH of the inclusion compound solution were determined in the same manner as above. The solution was stirred, and OD (620 nm) and pH were determined.
In the same manner as above, OD (620 nm) and pH of 1.0% tetracaine solution and an inclusion compound solution prepared by adding hydroxypropyl-β-cyclodextrin having an equimolar concentration to 1.0% tetracaine solution were determined. The solutions were stirred, and OD (620 nm) and pH were determined.
In the same manner as above, OD (620 nm) and pH of 0.5% bupivacaine solution and an inclusion compound solution prepared by adding α-cyclodextrin having an equimolar concentration to 0.5% bupivacaine solution were determined. The solutions were stirred, and OD (620 nm) and pH were determined.
The solutions were stirred, and OD (620 nm) and pH were determined.

mice = test: in vivo; settings: mouse, sc, 40 mg/kg
Procedure: (§1) While local anesthetics are known to show inhibitory action on the central nerve cells at high concentrations, they show stimulating action at low concentrations. […] That is, 0.5 %dibucaine dissolved in physiological saline was subcutaneously injected into the back of 11 mice by 0.3 ml (40 mg/kg body weight), which were compared with 11 mice that underwent subcutaneous injection of a solution containing 0.5% dibucaine and α-cyclodextrin having an equimolar concentration, by 0.3 ml (40 mg/kg body weight).

in vivo = settings: mouse, sc, 40 mg/kg
Procedure: as §1

[3] = tested on: abdominal giant nerve bundle of crayfish; test: Anesthetic concentration versus action potential disappearance and recovery time (Experimental Example 7); format: cell-based, crayfish (Procambarus clarkii)
Source text: A local anesthetic effect is known to be stronger in alkaline range where pH value is greater.
In addition, the relationship between dibucaine concentration and neuroaction potential recovery time was examined at pH 7.4.

OD (620 nm) [1] | clearness (%) [1] | turbidity (%) [1] | Compound | pH ([2]; 5 min later) | absorbance at 620 nm ([2]; 5 min later) | pH ([2]; 24 hr later) | absorbance at 620 nm ([2]; 24 hr later) | pH ([2]; 48 hr later) | absorbance at 620 nm ([2]; 48 hr later) | pH ([2]; 72 hr later) | absorbance at 620 nm ([2]; 72 hr later) | pH ([2]; initial) | absorbance at 620 nm ([2]; initial) | time to death from the injection (mice) | mortality (in vivo) | dibucaine concentration at which action potential disappeared and recovered ([3]; pH 7.4) | action potential disappearance time (expression of anesthetic action) ([3]; 0.4% lidocaine, pH 7.5) | action potential disappearance time (expression of anesthetic action) ([3]; 2% lidocaine, pH 6.5)
2.732 | 0% | 100% | CCCCNc1ccc(C(=O)OCCN(C)C)cc1 [tetracaine] | 7.12 | 0.517±0.024 | 7.04 | 0.411±0.024 | 7.05 | 0.386±0.015 | 7.05 | 0.301±0.025 | 5.49 | 0.000 |  |  |  |  | 
 |  |  | CCN(CC)CC(=O)Nc1c(C)cccc1C [lidocaine] | 7.09 | 1.045±0.242 | 7.05 | 0.717±0.152 | 7.10 | 0.382±0.044 | 7.12 | 0.595±0.086 | 4.59 | 0.006 |  |  |  | 2 min | 80 min
2.108 | 0% | 100% | CCCCN1CCCCC1C(=O)Nc1c(C)cccc1C (stereo not shown) [bupivacaine] | 7.20 | 0.087±0.015 | 6.89 | 0.659±0.084 | 6.77 | 0.247±0.061 |  |  | 5.44 | 0.000 |  |  |  |  | 

Compound | OD (620 nm) [1] | clearness (%) [1] | turbidity (%) [1] | pH ([2]; 5 min later) | absorbance at 620 nm ([2]; 5 min later) | pH ([2]; 24 hr later) | absorbance at 620 nm ([2]; 24 hr later) | pH ([2]; 48 hr later) | absorbance at 620 nm ([2]; 48 hr later) | pH ([2]; 72 hr later) | absorbance at 620 nm ([2]; 72 hr later) | pH ([2]; initial) | absorbance at 620 nm ([2]; initial) | time to death from the injection (mice) | mortality (in vivo) | dibucaine concentration at which action potential disappeared and recovered ([3]; pH 7.4) | action potential disappearance time (expression of anesthetic action) ([3]; 0.4% lidocaine, pH 7.5) | action potential disappearance time (expression of anesthetic action) ([3]; 2% lidocaine, pH 6.5)
CCCCOc1cc(C(=O)NCCN(CC)CC)c2ccccc2n1 [dibucaine] | 2.015 | 0% | 100% | 6.85 | 1.528±0.087 | 6.76 | 1.456±0.079 | 6.73 | 1.385±0.042 | 6.75 | 1.412±0.054 | 6.19 | 0.000 | about 20 min | 91% | 0.008%-0.05% |  | 
